Activity calls are given as the source filed them.
What was measured:
[1] = molecular target: T1, Carboxy-terminal domain RNA polymerase II polypeptide A small phosphatase 1 (Homo sapiens, UniProt Q9GZU7); assay: CTDSP1 inhibitors, concentration-response, biochemical, absorbance readout, ultra-high-throughput screen actives (AID 540297); format: functional
T1 sequence (Q9GZU7 whole entry): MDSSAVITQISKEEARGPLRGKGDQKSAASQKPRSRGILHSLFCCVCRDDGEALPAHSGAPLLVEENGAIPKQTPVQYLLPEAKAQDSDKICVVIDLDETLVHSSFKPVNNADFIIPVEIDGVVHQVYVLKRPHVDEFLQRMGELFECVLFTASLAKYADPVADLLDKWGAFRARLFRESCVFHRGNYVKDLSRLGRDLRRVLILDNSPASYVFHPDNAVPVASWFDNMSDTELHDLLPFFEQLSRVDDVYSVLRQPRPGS

[2] = molecular target: T2, Zinc finger protein mex-5 (Caenorhabditis elegans, UniProt Q9XUB2); assay: potency of MEX-5 RNA-binding blockers – biochemical, C. elegans, fluorescence polarization, dose response (AID 1960)
T2 sequence (Q9XUB2 whole entry): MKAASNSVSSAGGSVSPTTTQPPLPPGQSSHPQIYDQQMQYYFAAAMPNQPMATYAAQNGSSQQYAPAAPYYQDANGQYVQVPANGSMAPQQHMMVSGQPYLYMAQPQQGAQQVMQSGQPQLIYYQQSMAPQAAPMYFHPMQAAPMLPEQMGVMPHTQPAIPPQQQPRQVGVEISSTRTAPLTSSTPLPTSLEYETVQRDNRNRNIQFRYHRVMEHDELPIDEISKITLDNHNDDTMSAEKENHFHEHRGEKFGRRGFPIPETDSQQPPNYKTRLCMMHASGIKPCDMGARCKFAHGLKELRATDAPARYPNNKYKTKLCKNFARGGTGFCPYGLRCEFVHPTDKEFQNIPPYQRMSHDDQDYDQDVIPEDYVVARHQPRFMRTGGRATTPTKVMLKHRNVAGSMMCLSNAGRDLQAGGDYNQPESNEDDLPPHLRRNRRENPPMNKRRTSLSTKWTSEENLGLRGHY

[3] = molecular target: T3, RNA-binding protein pos-1 (Caenorhabditis elegans, UniProt G5EF15); assay: disruptors of C. elegans POS-1 RNA interaction – biochemical, fluorescence polarization, dose response (AID 1964);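 also: purified POS-1 fused to maltose binding protein made in E. coli; potency of compounds blocking POS-1 binding to fluorescent RNA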
T3 sequence (G5EF15 whole entry): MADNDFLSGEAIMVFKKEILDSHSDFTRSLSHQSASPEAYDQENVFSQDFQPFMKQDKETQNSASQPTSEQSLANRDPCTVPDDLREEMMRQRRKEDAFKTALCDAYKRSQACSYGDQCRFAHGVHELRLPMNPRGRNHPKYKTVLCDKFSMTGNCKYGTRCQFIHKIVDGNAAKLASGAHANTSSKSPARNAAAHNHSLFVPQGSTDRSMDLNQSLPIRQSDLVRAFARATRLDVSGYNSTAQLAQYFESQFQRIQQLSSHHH

[4] = molecular target: T4, Microphthalmia-associated transcription factor (Homo sapiens, UniProt O75030); assay: reducers of TRPM1 reporter luminescence, concentration series – cell-based, SK-MEL-5, cherry-picked, set 3, MITF inhibitor project, dose response (AID 493073); format: functional;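 also: SK-MEL-5 melanoma cells with luciferase driven by the MITF target TRPM1 promoter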
T4 sequence (O75030 whole entry): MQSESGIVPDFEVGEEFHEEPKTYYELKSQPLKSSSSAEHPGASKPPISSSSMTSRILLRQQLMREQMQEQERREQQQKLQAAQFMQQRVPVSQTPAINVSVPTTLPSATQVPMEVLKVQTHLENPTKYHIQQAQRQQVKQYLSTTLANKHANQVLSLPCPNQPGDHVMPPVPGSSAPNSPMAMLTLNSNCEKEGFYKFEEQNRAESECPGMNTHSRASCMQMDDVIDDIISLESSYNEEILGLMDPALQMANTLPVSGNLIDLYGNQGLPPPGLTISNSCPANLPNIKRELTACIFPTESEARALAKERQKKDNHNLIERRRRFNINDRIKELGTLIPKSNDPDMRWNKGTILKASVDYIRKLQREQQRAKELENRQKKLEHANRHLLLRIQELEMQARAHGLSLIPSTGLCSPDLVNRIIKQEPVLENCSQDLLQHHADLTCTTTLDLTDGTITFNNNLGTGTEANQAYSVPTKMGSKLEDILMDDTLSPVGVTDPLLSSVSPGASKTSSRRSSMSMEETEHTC

[5] = molecular target: Heat shock protein HSP 90-alpha (Homo sapiens, UniProt P07900); format: functional, organism-based
[6] = Luminescence Cell-Based Dose Confirmation HTS to Identify Inhibitors of Platelet Dense Granule Release. [Related pubchem assays: 1663 (Primary HTS), 1678 (Summary of Project)]; format: functional
[7] = molecular target: Luciferin 4-monooxygenase (Photinus pyralis, UniProt P08659); assay: inhibition of purified Photinus pyralis luciferase – biochemical, luminescence, dose response (AID 1891)
Sequence of Luciferin 4-monooxygenase (P08659 whole entry): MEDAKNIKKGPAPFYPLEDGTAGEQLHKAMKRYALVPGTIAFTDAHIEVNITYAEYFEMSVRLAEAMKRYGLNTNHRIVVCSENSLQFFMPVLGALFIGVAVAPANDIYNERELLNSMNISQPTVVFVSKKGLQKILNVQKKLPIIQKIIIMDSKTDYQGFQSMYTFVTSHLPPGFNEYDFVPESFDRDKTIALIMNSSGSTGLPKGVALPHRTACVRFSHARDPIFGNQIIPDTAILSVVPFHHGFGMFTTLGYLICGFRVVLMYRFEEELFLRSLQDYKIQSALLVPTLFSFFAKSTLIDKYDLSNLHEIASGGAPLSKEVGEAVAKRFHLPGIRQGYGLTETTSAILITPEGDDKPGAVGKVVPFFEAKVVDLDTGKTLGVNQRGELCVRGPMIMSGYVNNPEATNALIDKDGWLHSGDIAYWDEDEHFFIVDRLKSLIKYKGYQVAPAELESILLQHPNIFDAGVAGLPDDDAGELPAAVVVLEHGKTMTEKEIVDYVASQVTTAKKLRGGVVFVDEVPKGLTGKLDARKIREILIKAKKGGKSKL

Genome polyprotein = Genome polyprotein (dengue virus type 2, UniProt P29990); assay: flavivirus cap methylation enzyme inhibition – biochemical, confirmation dose response, primary screen (AID 588689); format: functional
Sequence of Genome polyprotein (P29990 2492-3391 limits assumed): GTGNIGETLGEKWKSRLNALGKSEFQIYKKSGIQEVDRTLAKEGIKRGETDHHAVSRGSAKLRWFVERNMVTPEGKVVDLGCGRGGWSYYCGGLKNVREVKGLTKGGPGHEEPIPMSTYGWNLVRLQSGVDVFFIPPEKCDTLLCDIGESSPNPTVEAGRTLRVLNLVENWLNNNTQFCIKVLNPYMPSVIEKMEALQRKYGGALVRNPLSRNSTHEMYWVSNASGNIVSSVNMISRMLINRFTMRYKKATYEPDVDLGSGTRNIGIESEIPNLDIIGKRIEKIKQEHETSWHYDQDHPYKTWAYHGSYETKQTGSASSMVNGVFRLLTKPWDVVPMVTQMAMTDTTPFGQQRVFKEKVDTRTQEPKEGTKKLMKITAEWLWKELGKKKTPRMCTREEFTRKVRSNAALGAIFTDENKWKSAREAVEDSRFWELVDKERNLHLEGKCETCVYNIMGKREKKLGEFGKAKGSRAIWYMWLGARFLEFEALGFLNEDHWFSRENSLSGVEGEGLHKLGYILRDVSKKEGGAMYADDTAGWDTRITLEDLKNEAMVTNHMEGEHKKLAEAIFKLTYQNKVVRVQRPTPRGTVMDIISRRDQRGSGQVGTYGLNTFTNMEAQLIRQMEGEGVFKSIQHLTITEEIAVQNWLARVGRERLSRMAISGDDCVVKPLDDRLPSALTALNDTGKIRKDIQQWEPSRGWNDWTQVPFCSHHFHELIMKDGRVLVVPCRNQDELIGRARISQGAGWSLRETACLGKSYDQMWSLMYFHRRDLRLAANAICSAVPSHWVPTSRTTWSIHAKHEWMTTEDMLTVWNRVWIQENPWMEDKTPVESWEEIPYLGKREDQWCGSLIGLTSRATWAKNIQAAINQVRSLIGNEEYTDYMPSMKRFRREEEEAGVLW

[8] = off-target signal loss in HeLa-CEM21 co-culture – HeLa F-luc CTL cells, cherry-picked, counter-screen for HIV-1 Env fusion inhibitor project, dose response (AID 652040); format: functional, cell-based;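 also: potency for signal decrease marking cytotoxic or nonspecific inhibition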
[9] = blockers of HIV-1 envelope-mediated cell-cell fusion – cherry-pick, dose response (AID 652057); format: functional, cell-based
[10] = Luminescence Cell-Based Dose Retest to Confirm Inhibitors of Cancer Stem Cells. [Related pubchem assays (depositor defined):AID2717, AID2721]; format: functional; conditions: Homo sapiens
[11] = HIV-1 AD8 envelope cell-cell fusion blockers – cherry-pick, dose response (AID 652062); format: functional, cell-based;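 also: luciferase signal from cell-cell fusion driven by HIV-1 clade B AD8 Env; potency is for inhibitors of fusion seen as a drop in luminescence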
[12] = blockers of HIV-1 ZM109 envelope-driven cell-cell fusion – HeLa effector, CEM target cells, luciferase, cherry-pick, dose response (AID 652058); format: functional, cell-based;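 also: luciferase signal from HIV-1 Env mediated cell-cell fusion of effector and target cells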
Paired box protein Pax-8 = Paired box protein Pax-8 (Homo sapiens, UniProt Q06710); assay: PAX8 transcriptional activity inhibition in RMG-I – RMG-I cells, luciferase, cherry-pick, dose response (AID 687027); format: functional, cell-based;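 also: luciferase reporter driven by Pax8 target thyroperoxidase promoter measured by SteadyGlo luminescence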
Sequence of Paired box protein Pax-8 (Q06710 whole entry): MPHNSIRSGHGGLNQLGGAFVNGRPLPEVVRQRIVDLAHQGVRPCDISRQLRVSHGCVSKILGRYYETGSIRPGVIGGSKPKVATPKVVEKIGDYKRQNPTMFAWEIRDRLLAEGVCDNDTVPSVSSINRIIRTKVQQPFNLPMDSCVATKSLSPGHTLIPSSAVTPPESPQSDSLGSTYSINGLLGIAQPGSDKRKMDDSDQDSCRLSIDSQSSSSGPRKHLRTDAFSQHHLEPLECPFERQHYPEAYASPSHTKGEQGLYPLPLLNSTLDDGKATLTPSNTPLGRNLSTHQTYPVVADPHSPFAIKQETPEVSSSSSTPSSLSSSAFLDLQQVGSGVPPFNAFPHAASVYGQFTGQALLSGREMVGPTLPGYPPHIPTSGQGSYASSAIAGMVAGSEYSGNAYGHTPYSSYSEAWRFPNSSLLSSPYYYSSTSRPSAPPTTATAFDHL

SN12K1 = assay: cells; format: functional; conditions: Homo sapiens
P388/ADR = assay: cells; format: functional; conditions: Mus musculus

With `CC(=O)Nc1ccc(NC(=O)CSc2nc(N)c(NC(=O)c3ccccc3F)c(=O)[nH]2)cc1` the IC50 [1] was 11.9 µM (active).
In the case of `Fc1cc(F)cc(-c2c(-c3ccccc3)ncc3ccc(F)cc23)c1`, the IC50 [1] is reported as 8.88 µM (active).
For `CN(C)C(=O)COC(=O)c1ccc(S(=O)(=O)NCc2ccco2)cc1`, the IC50 [1] was 6.65 µM (active).
With `O=C1NC(=O)N(c2ccc(F)cc2)C(=O)/C1=C/Nc1ccccc1N1CCCC1` the EC50 [2] was 103 µM (active) and the EC50 [3] was 76.7 µM (active).
In the case of `O=C(c1ccc([N+](=O)[O-])s1)N1CCCc2ccccc21`, the AC50 [4] is reported as 11.2 µM (active).
For `Cc1ccc(N2C(=O)C3C4C=CC(CN=C(S)N5CCN(c6cccc(C)c6)C(C)C5)(O4)C3C2=O)cc1` (centres undefined), the AC50 [5] was 8.5 µM (active).
For `COC(=O)C(C#N)c1nc2ccccc2nc1N1CCN(Cc2ccc3c(c2)OCO3)CC1` (centres undefined), the EC50 [6] was > 112 µM (not active) and the EC50 [7] was > 112 µM (not active).
In the case of `Cc1ccccc1NC(=O)/C(C#N)=C\c1cc(C)n(-c2ccc(C(=O)O)cc2)c1C`, the EC50 [2] is reported as > 300 µM (not active) and the EC50 [3] is reported as > 300 µM (not active).
In the case of `CCOC(=O)/C(C#N)=C/c1cc2ccccc2nc1N1CCCCC1`, the EC50 [2] is reported as 104 µM (active) and the EC50 [3] is reported as > 300 µM (not active).
With `CC(C)OP(=O)(OC(C)C)C1(NS(=O)(=O)c2ccc(Cl)cc2)C=C(Cl)C(=O)C(Cl)=C1` the IC50 (Genome polyprotein) was 99.3 µM (active).
In the case of `CN1C(=O)C(=Cc2ccccc2OS(=O)(=O)c2ccccc2)C(=O)N(C)C1=O`, the EC50 [2] is reported as > 300 µM (not active) and the EC50 [3] is reported as > 300 µM (not active).
With `COc1ccc(/C=C(\C#N)C(=O)Nc2ccc3[nH]c(O)nc3c2)cc1` the IC50 [1] was 3.26 µM (active).
In the case of `CN1CCN(C(=O)c2cc(COc3c(F)cccc3F)on2)CC1c1ccccc1` (centres undefined), the AC50 [5] is reported as 0.566 µM (active).
In the case of `O=C(Nc1ccc(Cl)cn1)C1CCCN1S(=O)(=O)c1cccc2ccccc12` (centres undefined), the AC50 [8] is reported as 53.6 µM (active) and the AC50 [9] is reported as 29.8 µM (active).
With `O=C(/C=C/c1ccccc1[N+](=O)[O-])c1ccccc1Br` the AC50 [10] was 7.14 µM (active) and the AC50 [5] was 4.37 µM (active).
In the case of `COc1cccc(NC(=O)C(=O)c2cn(CC(=O)N3CCOCC3)c3ccccc23)c1`, the EC50 [2] is reported as > 300 µM (not active) and the EC50 [3] is reported as > 300 µM (not active).
With `COCCN(C(=O)c1cc(-c2ccco2)nc2ccccc12)c1c(N)n(Cc2ccccc2)c(=O)[nH]c1=O` the IC50 [1] was 6.59 µM (active).
With `Cc1cc(C)n(Cc2ccc(F)cc2)c(=O)c1C#N` the EC50 [6] was 15.7 µM (active) and the EC50 [7] was > 112 µM (not active).
For `CCOC(=O)C1CCCN(C2CC(=O)N(c3cccc(C(F)(F)F)c3)C2=O)C1` (centres undefined), the AC50 [5] was 7.53 µM (active).
In the case of `CCN1CCN(C(=O)c2ccc3c(=O)n(Cc4ccccc4OC)c(=S)[nH]c3c2)CC1`, the EC50 [2] is reported as > 300 µM (not active) and the EC50 [3] is reported as > 300 µM (not active).
In the case of `CCN(C[C@H]1N[C@@](CC)(C(=O)OC)[C@H]2C(=O)N(Cc3ccccc3)C(=O)[C@@H]12)S(=O)(=O)c1ccc(C(F)(F)F)cc1`, the AC50 [8] is reported as 1.79 µM (active), the AC50 [9] is reported as 1.3 µM (active) and the AC50 [11] is reported as 2.16 µM (active). For the same compound, the AC50 [12] was 1.3 µM (active).
With `O=C(CN(c1cc(C(F)(F)F)ccc1Cl)S(=O)(=O)c1ccccc1)NCc1cccnc1` the AC50 [8] was 3.81 µM (active), the AC50 [9] was 1.98 µM (active) and the AC50 [11] was 5.21 µM (active). The AC50 [12] was 3.01 µM (active).
For `CCC(C)(C)NC(=O)C(c1ccc(C)cc1)N(CC1CCCO1)C(=O)c1csnn1` (centres undefined), the AC50 [8] was 6.84 µM (active), the AC50 [9] was 4.81 µM (active) and the AC50 [11] was 7.81 µM (active). For the same compound, the AC50 [12] was 2.82 µM (active).
For `COC(=O)[C@@]1(Cc2ccccc2)[C@H]2C(=O)N(Cc3ccccc3)C(=O)[C@H]2[C@H]2CN=C(SCc3ccc(C#N)cc3)N21`, the AC50 [8] was 4.57 µM (active), the AC50 [9] was 2.07 µM (active) and the AC50 [11] was 4.69 µM (active). For the same compound, the AC50 [12] was 3.83 µM (active).
In the case of `COc1ccc([C@@H]2[C@@H]3C(=O)N(C(C)(C)C)C(=O)[C@@H]3[C@]3(CC(C)C)C(=O)N(c4cccc(F)c4)C(=O)N23)cc1`, the AC50 [8] is reported as < 0.26 µM (active), the AC50 [9] is reported as < 0.26 µM (active) and the AC50 [11] is reported as < 0.26 µM (active). For the same compound, the AC50 [12] was < 0.26 µM (active).
In the case of `O=C(C[C@H]1CC[C@H]2[C@@H](COC[C@@H](O)CN2Cc2ccc(F)cc2)O1)NCc1ccccc1Cl`, the AC50 (Paired box protein Pax-8) is reported as 23.7 µM (active).
In the case of `O=C(Cn1cc(/C=N/NC(=O)c2cccc(C(F)(F)F)c2)c2ccccc21)Nc1ccc(F)cc1`, the IC50 [1] is reported as 4.23 µM (active).
In the case of `Nc1cc2[nH]cnc2c(=O)[nH]1` [DEZAGUANINE], the GI50 (SN12K1) is reported as 13.8 µM (inactive) and the GI50 (P388/ADR) is reported as 10.2 µM (inactive).

Reference: ChEMBL document CHEMBL1201862, “PubChem BioAssay data set” (2004)
